The source made the active and inactive calls. No rule for the calls is given here.
biological target: Gag-Pol polyprotein (Human immunodeficiency virus type 1 group M subtype B (isolate HXB2)) (UniProt P04585); test: concentration-response of HIV-1 RNase H blockers – biochemical, probe assessment, dose response (AID 652); conditions: HIV-1 RT RNase H enzymatic assay

Point of comparison: `O=C(CSc1nc2c([nH]c3ccccc32)c(=O)n1-c1cccc(Cl)c1)N1CCOCC1`, IC50 23.4 µM. Against it:
- C1=C(c2ccc(-c3ccccc3)cc2)Nc2ncnn2C1c1ccco1 (stereo unspecified) — 1.6-fold lower, 14.5 µM
- CC(C)Sc1nc(-c2cccs2)nc2c1c(=O)n(C)c(=O)n2C — 4.3-fold lower, 5.42 µM
- CCCCCCn1c(SCC(=O)OC)nc2c1c(=O)[nH]c(=O)n2C — 7.5-fold lower, 3.11 µM
- COc1ccc(-n2nc3cc(C)c(NC(=O)CC(C)C)cc3n2)cc1 — 2.9-fold lower, 8.06 µM
- Nc1c(S(=O)(=O)c2cccc(Cl)c2)c2nc3ccccc3nc2n1/N=C/c1ccc(O)c(O)c1 — 88-fold lower, 0.266 µM
- CCOc1ccc(N2Cc3ccccc3C2)cc1 — 3.2-fold lower, 7.36 µM
- CCCCn1c(CN2C(=O)c3ccccc3C2=O)nc2ccccc2c1=O — 1.9-fold lower, 12.4 µM
- COC(=O)C1=C(C)N=c2s/c(=C3\C(=O)Nc4ccccc43)c(=O)n2C1c1ccccc1 (stereo unspecified) — 3.9-fold lower, 5.94 µM
- S=C(c1ccc(Cl)cc1)N1CCOCC1 — 5.8-fold lower, 4.01 µM

With `CCOc1cccc(C=Nc2cc(C)cc(C)c2O)c1O` the IC50 was > 50 µM (inactive).

same assay, conditions: HIV-1 RT RNase H enzymatic assay, inhibition, at 50 µM, stronger effect = higher value

Point of comparison: `c1ccc2c(c1)OCC(c1nnc3sc(-c4ccc5c(c4)OCO5)nn13)O2` (stereo unspecified), inhibition 97.2%. Against it:
- c1ccc(Cc2nn3c(Cn4nnc5ccccc54)nnc3s2)cc1 — lower, 96.1%
- C1=C(c2ccc(-c3ccccc3)cc2)Nc2ncnn2C1c1ccco1 (stereo unspecified) — lower, 48.6%
- CCC(C)c1ccc2oc(-c3ccc(NC(=O)c4ncn[nH]4)cc3)nc2c1 (stereo unspecified) — lower, 94.2%
- CCOC(=O)c1c(NC(=O)c2cc(C3CC3)on2)sc2c1CCCC2 — lower, 97.1%
- c1ccc2[nH]c(SN3CCOCC3)nc2c1 — lower, 74.2%
- CCOC(=O)c1c(C2COc3ccccc3O2)csc1NC(=O)c1ccco1 (stereo unspecified) — lower, 96.6%
- CC(C)c1ccc2oc(-c3ccc(NC(=O)c4ncn[nH]4)cc3)nc2c1 — lower, 92.7%
- Cc1ccc(-c2cc(C(F)F)n3ncc(C(=O)NCc4ccco4)c3n2)cc1 — lower, 93%
- CC(C)Sc1nc(-c2cccs2)nc2c1c(=O)n(C)c(=O)n2C — higher, 98.9%
- CCOC(=O)c1c(N)sc2c1CCC1C(=O)N(C3CCCCC3)C(=O)C21 (stereo unspecified) — lower, 96.1%
- N#Cc1c(NC(=O)c2ccc(Cn3cc(Br)cn3)o2)sc2c1CCCCCC2 — higher, 98%
- COc1ccc(N2CCN(Cc3cc(=O)oc4cc(C)c(Cl)c(C)c34)CC2)cc1 — lower, 96%
- CCCSc1nc2c(cnn2-c2ccc(Cl)cc2)c(=O)[nH]1 — lower, 92.8%
- C=CCc1c(C)[nH]c(=S)c(C#N)c1C — lower, 67.2%
- CCOc1cccc(C=Nc2cc(C)cc(C)c2O)c1O — lower, 20.5%
- CCCCCCn1c(SCC(=O)OC)nc2c1c(=O)[nH]c(=O)n2C — lower, 79.6%
- COC(=O)c1ccc2c(c1)N(Cc1nc(-c3cccc(C)c3)oc1C)C(=O)C1CCCN21 (stereo unspecified) — lower, 78.1%
- Cc1cc(NC(=O)CSc2nc3cc4c(cc3c(=O)n2CCc2ccccc2)OCO4)no1 — lower, 76.9%
- CCCN(CCC)S(=O)(=O)c1ccc(C(=O)Nc2nnc(-c3cccc(OC)c3)o2)cc1 — lower, 87.4%
- COc1ccc(CC(=O)Nc2ccc(-c3noc(-c4cccc(OC)c4)n3)cc2)cc1 — lower, 85.5%
- Cc1cc(-c2nn3c(-c4ccccc4)nnc3s2)c2ccccc2n1 — lower, 94.7%
- CCCc1cc(C(N)=O)c(NC(=O)C2CCCO2)s1 (stereo unspecified) — higher, 98.3%
- COc1ccc(N2CSC3=C(C#N)C(c4cc(OC)ccc4OC)CC(=O)N3C2)c(OC)c1 (stereo unspecified) — lower, 93.9%
- Cc1oc(-c2ccc(Cl)cc2)cc1-c1nn2c(-c3ccoc3C)nnc2s1 — lower, 78.4%
- COc1cc(-c2nnc3sc(-c4cccnc4)nn23)cc(OC)c1OC — lower, 72.2%
- CC(C)c1nnc(NC(=O)c2c(O)c3cccc4c3n(c2=O)CCC4)s1 — lower, 64.9%
- O=C(Nc1ccc(N2CCOCC2)cc1)c1ccc2nc(-c3ccco3)c(-c3ccco3)nc2c1 — lower, 93.4%
- CCOC(=O)CSc1nc2cc(C(=O)NCc3ccco3)ccc2c(=O)n1-c1ccc(F)cc1 — lower, 91.8%
- O=c1ccc2cc3c([nH]c4ccc(Br)cc43)oc-2c1O — lower, 88.5%
- COc1ccc(-n2nc3cc(C)c(NC(=O)CC(C)C)cc3n2)cc1 — lower, 93.4%
- Nc1c(S(=O)(=O)c2cccc(Cl)c2)c2nc3ccccc3nc2n1/N=C/c1ccc(O)c(O)c1 — lower, 96.3%
- Cc1ccnc(-n2sc3ccccc3c2=O)n1 — lower, 96.7%
- COc1cc(N=c2ssnc2Cl)cc(OC)c1OC — lower, 78.8%
- COc1ccc2[nH]c(=O)c(CN(C3CCCCC3)C(c3nnnn3Cc3ccco3)C(C)C)cc2c1 (stereo unspecified) — lower, 88.5%
- O=C(O)/C=C/c1ccc(O)c(O)c1 — lower, 52.1%
- O=C(CCN1C(=O)c2ccccc2C1=O)Nc1ccc(-c2nc3ccccc3o2)cc1 — lower, 92.1%
- COC(=O)c1ccc2c(=O)n(Cc3ccco3)c(SCC(=O)Nc3ccc(C)c(Cl)c3)nc2c1 — lower, 92.1%
- Cc1cc(NC(=O)CSc2ccc(-c3nc4cc(C)c(C)cc4[nH]3)cn2)no1 — lower, 83%
- c1ccc(N2CCN(c3nc4cc5c(cc4s3)OCO5)CC2)cc1 — higher, 97.6%
- Cc1cc(C)c2oc(-c3ccc(Cl)c(NC(=O)c4ccc(C#N)cc4F)c3)nc2c1 — lower, 91%
- c1ccc(Cc2nnc3sc(-c4ccncc4)nn23)cc1 — lower, 80.4%
- CCOc1ccc(N2Cc3ccccc3C2)cc1 — lower, 80%
- CC1(C)Cc2[nH]c(=S)c(C#N)cc2CO1 — lower, 71.1%
- COc1cccc(OCC(=O)Nc2c(C(=O)Nc3ccc(OC)cc3OC)oc3ccccc23)c1 — lower, 88.5%
- O=C(c1ccc2c3c(cccc13)C(=O)N(O)C2=O)N1CCCCC1 — lower, 91.7%
- CC(Cc1ccc(O)c(O)c1)C(C)Cc1ccc(O)c(O)c1 (stereo unspecified) — higher, 99%
- CCCCn1c(CN2C(=O)c3ccccc3C2=O)nc2ccccc2c1=O — higher, 98%
- CC(=O)C(C(C)=O)c1c(Cl)c(O)c(O)c2c(C(=O)c3ccccc3)coc12 — lower, 93.1%
- N#Cc1c(N)nc(SCC(=O)NC2CCCCC2)c(C#N)c1-c1ccc(Cl)cc1 — lower, 64.2%
- CC(C)C1N=C2c3ccccc3N=C(SCC(=O)c3ccc(O)c(O)c3)N2C1=O (stereo unspecified) — higher, 99.8%
- O=C(NC(=O)c1ccc(Cl)cc1)Nc1cc(N2CCCCC2)ncn1 — higher, 97.4%
- O=S(=O)(c1ccc(S(=O)(=O)N2CCN(C/C=C/c3ccccc3)CC2)cc1)N1CCCC1 — lower, 96.9%
- CC(C)Sc1nc2sc3c(c2c2nnc(SCC(=O)NCc4ccco4)n12)CCCC3 — lower, 85.1%
- Cc1ccccc1OCc1nc(-c2ccc(NC(=O)c3ccc4c(c3)OCO4)cc2)no1 — lower, 90.2%
- O=C(CSc1ncn[nH]1)c1ccccc1 — lower, 84.1%
- O=C(O)c1ccc2c(c1)NC(=O)C(N1CCCC1)S2 (stereo unspecified) — lower, 75.8%
- Cc1cc(C)c2c(=O)n(CC(=O)N3CCC(N4CCCCC4)CC3)sc2n1 — lower, 60.1%
- Cc1cccc(NC(=O)Cn2c(C)c(C#N)c3ccccc32)c1C — lower, 89%
- Cc1nn(CCc2nc(-c3ccco3)cs2)c2[nH]c(=O)cc(C(F)(F)F)c12 — higher, 97.6%
- Fc1ccc(-c2nnc3sc(-c4ccc5c(c4)OCO5)nn23)cc1 — lower, 72.3%
- COC(=O)N(c1ccc(OC)cc1)P1(=S)OCCC(C)O1 (stereo unspecified) — lower, 87.5%
- CC(C)c1ccc(C2CC(=O)N3CN(C)CSC3=C2C#N)cc1 (stereo unspecified) — lower, 86.9%
- O=C(CSc1nc2c([nH]c3ccccc32)c(=O)n1-c1cccc(Cl)c1)N1CCOCC1 — lower, 82.5%
- COc1ccc(OC)c(S(=O)(=O)Nc2ccc(O)c(Sc3ncn[nH]3)c2)c1 — lower, 89.7%
- Cc1sc2nc(C(C)Nc3ccccc3N3CCOCC3)[nH]c(=O)c2c1C (stereo unspecified) — lower, 66.5%
- COC(=O)c1ccccc1NC(=O)c1sc(=S)n(C)c1N — higher, 101%
- O=C(NCCc1ccccc1)c1c(O)c2cccc3c2n(c1=O)CC3 — lower, 67.7%
- Cc1ccc(-n2c(N)c(C(=O)N3CCOCC3)sc2=S)cc1 — lower, 75.9%
- N#Cc1cc(-c2ccccc2)nn1-c1ccccc1 — higher, 99.4%
- CCN1CCN(c2nc(C)nc3c2sc(=S)n3C)CC1 — lower, 76.3%
- COc1cccc(OC)c1-c1nn2c(-c3cc(-c4ccccc4)n[nH]3)nnc2s1 — lower, 63.5%
- CCC1(C)Cc2c(sc3c2c(=O)n(C)c2nnc(SCc4ccc5c(c4)OCO5)n32)CO1 (stereo unspecified) — lower, 96.2%
- COC(=O)c1ccccc1S(=O)(=O)N(Cc1cc2cc3c(cc2[nH]c1=O)OCO3)C1CCCCC1 — lower, 90.3%
- CC1=C(SCCC#N)S/C(=C2\SC(C)=C(SCCC#N)S2)S1 — higher, 97.5%
- CCCCCn1c(=O)c(C(=O)NCc2ccncc2)c(O)c2ccccc21 — lower, 96%
- CCOC(=O)C(C(C)=O)c1c(Br)c(O)c(O)c2c(C(=O)c3ccc(C)cc3)coc12 (stereo unspecified) — lower, 86.7%
- COc1ccc(C2C(C(C)=O)=C(C)N=c3s/c(=C/c4ccc5c(c4)OCO5)c(=O)n32)cc1 (stereo unspecified) — lower, 82.2%
- O=C(O)c1cc(S(=O)(=O)Nc2ccc3oc(=O)sc3c2)ccc1O — lower, 88.2%
- COC(=O)c1oc2ccc(Br)cc2c1NC(=O)c1ccccc1 — lower, 94%
- COc1ccc(OC)c(/C=N/c2oc(-c3ccco3)c(-c3ccco3)c2C#N)c1 — lower, 89.5%
- O=c1c(O)c(-c2ccc(O)cc2O)oc2cc(O)cc(O)c12 — lower, 92.8%
- COC(=O)C1=C(C)N=c2s/c(=C3\C(=O)Nc4ccccc43)c(=O)n2C1c1ccccc1 (stereo unspecified) — lower, 85.1%
- COc1ccccc1N=c1oc2c(OC)cccc2cc1C(=O)NCc1ccco1 — lower, 94.1%
- Nc1nnc(CSCc2ccc(F)cc2)s1 — lower, 51.7%
- CCOC(=O)c1c(NC(=O)c2ccc(-n3cnnn3)cc2)sc2c1CCCC2 — lower, 88.3%
- Cc1cccc(-c2nsc(SCC(=O)Nc3nccs3)n2)c1 — higher, 97.3%
- S=C(c1ccc(Cl)cc1)N1CCOCC1 — lower, 73.5%
- C=CCSc1nc2c(c(=O)[nH]c(=O)n2C)n1CC — lower, 72.8%
- CC(C)(C)C1=Nn2c(nnc2-c2ccccn2)SC1 — lower, 80.5%
- O=C(CSc1nc2sc3c(c2c(=O)n1-c1ccccc1)CCCC3)NCc1ccco1 — lower, 77.8%
- Cc1ccccc1NC(=O)CSc1nc2c(c(-c3ccco3)c1C#N)CCCC2 — the same, 97.2%
- O=C1CC(c2ccco2)Cc2nc(Nc3nc(-c4ccccc4)c4ccccc4n3)ncc21 (stereo unspecified) — lower, 53.7%
- CCOc1ccccc1N1CSC2=C(C#N)C(c3c(OC)ccc4ccccc34)CC(=O)N2C1 (stereo unspecified) — lower, 92%
- O=C1CC(c2ccccc2)Cc2nc(N3CCc4ccccc43)ncc21 (stereo unspecified) — lower, 94.6%
- Cc1cc(C)n2c(=S)[nH]nc2n1 — lower, 71.1%
- COc1ccc(-c2nsc(SCC(=O)Nc3cc(C)on3)n2)cc1 — lower, 96.6%
- CCN(Cc1ccccc1)S(=O)(=O)c1ccc(C(=O)Nc2nnc(-c3ccccc3OC)o2)cc1 — lower, 95.8%
- COc1ccc(Cn2nnnc2C(c2cccnc2)N2CCN(c3ccc(O)cc3)CC2)cc1 (stereo unspecified) — lower, 43%
- c1ccc2c(c1)nnn2Cc1nnc2sc(-c3ccc4c(c3)OCCO4)nn12 — lower, 85.3%
- Cc1ccc2c(SCC(=O)NCc3ccco3)nc(-c3ccc(F)cc3)nc2c1 — lower, 79.6%
- c1ccc(-c2ccc(-c3ccccn3)nn2)nc1 — lower, 52.4%
- c1ccc2c(c1)nnn2Cc1nnc2sc(-c3ccncc3)nn12 — lower, 90.6%
- CC1CCc2c(sc(NC(=O)c3ccc(Cn4cc(Br)cn4)o3)c2C(N)=O)C1 (stereo unspecified) — lower, 76.3%
- O=C(c1ccccc1F)N1CCN(S(=O)(=O)c2ccc(S(=O)(=O)N3CCCCC3)cc2)CC1 — lower, 95.5%

Reference: PubChem BioAssay AID652 (University of Pittsburgh Molecular Library Screening Center, 2007)
